Assays:
[1] = biological target: T1, AXL (Homo sapiens, UniProt P30530); test: AXL autophosphorylation ELISA in A-172 cells; assay type: cell-based; conditions: cellular activity, Gas6-stimulated, phospho-AXL ELISA
T1 construct: endogenous in cells; host or cells: A-172 glioblastoma cells (ATCC #CRL-1620)
T1 sequence (P30530 26-894): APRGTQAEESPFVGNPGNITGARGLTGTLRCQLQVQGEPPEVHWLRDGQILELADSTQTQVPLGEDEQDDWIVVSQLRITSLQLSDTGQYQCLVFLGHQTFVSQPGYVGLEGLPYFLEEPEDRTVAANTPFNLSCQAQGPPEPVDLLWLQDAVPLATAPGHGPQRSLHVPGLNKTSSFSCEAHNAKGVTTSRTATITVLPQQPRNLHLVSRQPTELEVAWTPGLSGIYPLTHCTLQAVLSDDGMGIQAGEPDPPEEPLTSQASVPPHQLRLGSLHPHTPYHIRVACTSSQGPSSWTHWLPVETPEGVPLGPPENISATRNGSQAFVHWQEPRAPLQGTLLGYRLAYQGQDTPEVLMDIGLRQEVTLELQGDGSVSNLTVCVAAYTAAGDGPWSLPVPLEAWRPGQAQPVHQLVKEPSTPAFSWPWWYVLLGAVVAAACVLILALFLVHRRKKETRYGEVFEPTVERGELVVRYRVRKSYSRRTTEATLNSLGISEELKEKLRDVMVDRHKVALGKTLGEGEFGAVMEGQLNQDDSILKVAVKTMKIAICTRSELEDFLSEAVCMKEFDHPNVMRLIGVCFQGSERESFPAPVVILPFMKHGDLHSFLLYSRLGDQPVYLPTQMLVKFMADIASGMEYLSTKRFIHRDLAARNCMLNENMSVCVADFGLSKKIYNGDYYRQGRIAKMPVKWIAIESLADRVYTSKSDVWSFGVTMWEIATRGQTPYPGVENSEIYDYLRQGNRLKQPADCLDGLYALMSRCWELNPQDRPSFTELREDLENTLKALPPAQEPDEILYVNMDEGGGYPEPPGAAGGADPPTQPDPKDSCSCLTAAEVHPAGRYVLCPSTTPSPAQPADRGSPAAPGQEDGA
Description: A-172 glioblastoma cells (ATCC #CRL-1620) were seeded at 2.5×10^5 cells/well onto 24-well plates (Greiner #662165), in DMEM (Thermo Fisher #11995-040) containing 10% FBS (Thermo Fisher #26140-079), 1% MEM NEAA (Thermo Fisher #11140-050), 1% GlutaMax (Thermo Fisher #35050-061) and 1% Penicillin Streptomycin (Thermo Fisher #15140-122). A-172 cells were incubated at 37° C., 5% CO2 for 24 h and then starved for 24 h in serum-free medium. Test compounds were serially diluted to produce an 8-point dose curve in fresh serum-free medium to a final concentration of 0.3% DMSO (vehicle) and added to the cells and incubated for 1 h. Cells were then stimulated with 1 μg/mL recombinant human Gas6 (R&D Systems #885-GSB-500) for 15 min, washed with cold PBS and immediately lysed with 150 μL of cold 1× lysis buffer [20 mM Tris, 137 mM sodium chloride, 2 mM EDTA, 10% glycerol, 1% NP-40 alternative, 1 mM activated sodium orthovanadate, 1 mM PefaBloc SC (Sigma-Aldrich #11429868001), protease/phosphatase inhibitor tablet (Thermo Fisher #A32959)]. Lysates were collected and 100 μL/well added into the human phospho-AXL DuoSet IC ELISA (R&D Systems #DYC2228-2). Assay was performed according to manufacturer's instructions and sample phospho-AXL concentrations were extrapolated using human phospho-AXL control (R&D Systems #841645) as a standard. Positive control wells (100% activity) contained Gas6-stimulated, DMSO-treated cell lysates. Negative control wells (0% activity) contained Gas6-stimulated, reference inhibitor-treated cell lysates. IC50 values were calculated by nonlinear regression analysis using a 4-parameter logistic curve fit in ActivityBase XE (IDBS).

[2] = biological target: KDR (Homo sapiens, UniProt P35968); test: KDR autophosphorylation ELISA in HUVEC cells; assay type: cell-based; design: endogenous in cells; host or cells: HUVEC (Lonza #C2519A); conditions: cellular activity, VEGF165-stimulated, phospho-KDR ELISA
Description: Human umbilical vein endothelial cells or HUVEC (Lonza #C2519A) were seeded at 2×10^4 cells/well onto 96-well plates (Corning #3904), in EGM-2 growth medium (Lonza #CC-3162) containing 1% Penicillin Streptomycin (Thermo Fisher #15140-122). HUVEC cells were incubated at 37° C., 5% CO2 for 24 h and then starved for 24 h in serum-free EBM-2 basal medium (Lonza #CC-3156) containing 1% Penicillin Streptomycin. Test compounds were serially diluted to produce an 8-point dose curve in fresh serum-free medium to a final concentration of 0.3% DMSO (vehicle) and added to the cells and incubated for 1 h. Cells were then stimulated with 100 ng/mL recombinant human VEGF165 (R&D Systems #293-VE-500) for 5 min, washed with cold PBS, and immediately lysed with 130 μL of cold 1× lysis buffer [20 mM Tris, 137 mM sodium chloride, 2 mM EDTA, 10% glycerol, 1% NP-40 alternative, 1 mM activated sodium orthovanadate, 1 mM PefaBloc SC (Sigma-Aldrich #11429868001), protease/phosphatase inhibitor tablet (Thermo Fisher #A32959)]. Lysates were collected and 100 μL/well added into the human phospho-KDR DuoSet IC ELISA (R&D Systems #DYC1766-2). Assay was performed according to manufacturer's instructions and sample phospho-KDR concentrations were extrapolated using human phospho-KDR control (R&D Systems #841421) as a standard. Positive control wells (100% activity) contained VEGF165-stimulated, DMSO-treated cell lysates. Negative control wells (0% activity) contained non-stimulated cell lysates. IC50 values were calculated by nonlinear regression analysis using a 4-parameter logistic curve fit in ActivityBase XE (IDBS).

KDR, sequence (P35968 20-1356): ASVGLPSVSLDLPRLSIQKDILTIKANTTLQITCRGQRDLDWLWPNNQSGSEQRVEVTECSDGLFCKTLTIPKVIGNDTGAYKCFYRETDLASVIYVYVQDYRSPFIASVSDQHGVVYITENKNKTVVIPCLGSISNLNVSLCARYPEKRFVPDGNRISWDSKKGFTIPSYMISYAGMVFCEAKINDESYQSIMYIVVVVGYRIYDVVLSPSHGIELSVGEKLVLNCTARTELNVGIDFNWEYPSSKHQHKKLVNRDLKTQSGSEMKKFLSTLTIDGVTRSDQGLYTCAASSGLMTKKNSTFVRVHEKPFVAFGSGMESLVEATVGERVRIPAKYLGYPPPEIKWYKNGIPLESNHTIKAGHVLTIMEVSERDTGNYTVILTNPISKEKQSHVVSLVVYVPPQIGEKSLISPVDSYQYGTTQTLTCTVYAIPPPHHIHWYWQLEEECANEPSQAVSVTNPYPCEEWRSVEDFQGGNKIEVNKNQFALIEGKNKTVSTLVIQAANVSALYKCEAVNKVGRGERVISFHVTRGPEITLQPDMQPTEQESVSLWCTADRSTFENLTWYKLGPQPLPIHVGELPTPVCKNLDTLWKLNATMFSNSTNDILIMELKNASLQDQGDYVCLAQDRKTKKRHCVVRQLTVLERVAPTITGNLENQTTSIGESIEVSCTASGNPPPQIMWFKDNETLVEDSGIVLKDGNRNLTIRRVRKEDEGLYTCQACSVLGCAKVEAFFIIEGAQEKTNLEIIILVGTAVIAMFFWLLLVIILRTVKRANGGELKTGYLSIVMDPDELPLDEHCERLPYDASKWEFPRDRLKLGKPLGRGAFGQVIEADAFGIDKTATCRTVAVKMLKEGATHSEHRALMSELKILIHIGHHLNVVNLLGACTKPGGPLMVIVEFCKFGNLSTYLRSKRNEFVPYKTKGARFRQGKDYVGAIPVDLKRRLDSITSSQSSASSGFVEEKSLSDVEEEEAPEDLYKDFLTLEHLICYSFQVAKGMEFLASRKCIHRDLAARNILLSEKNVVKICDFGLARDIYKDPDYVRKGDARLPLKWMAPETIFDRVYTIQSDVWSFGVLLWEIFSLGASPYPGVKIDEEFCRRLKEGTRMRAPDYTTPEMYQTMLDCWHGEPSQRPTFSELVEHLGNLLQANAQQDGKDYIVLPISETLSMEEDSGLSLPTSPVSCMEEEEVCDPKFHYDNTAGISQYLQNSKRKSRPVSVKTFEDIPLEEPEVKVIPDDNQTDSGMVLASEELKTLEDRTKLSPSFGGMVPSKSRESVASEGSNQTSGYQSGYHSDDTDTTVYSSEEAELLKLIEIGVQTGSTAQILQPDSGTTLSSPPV

Structure (SMILES)	IC50 [1] [nM]	IC50 [2] [nM]
O=C(Nc1ccc(F)cc1)C1(C(=O)Nc2ccc(Oc3ccnc4cc(-c5cnn(C(F)(F)F)c5)ccc34)cc2)CC1 [Compound 12, 1-N′-(4-Fluorophenyl)-1-N-[4-[7-[1-(trifluoromethyl)pyrazol-4-yl]quinolin-4-yl]oxyphenyl]cyclopropane-1,1-dicarboxamide]	10 to 100	10 to 100
O=C(Nc1ccc(F)cc1)C1(C(=O)Nc2ccc(Oc3ccnc4cc(-c5cnn(C(F)F)c5)ccc34)cc2)CC1 [Compound 13, 1-N-[4-[7-[1-(Difluoromethyl)pyrazol-4-yl]quinolin-4-yl]oxyphenyl]-1-N′-(4-fluorophenyl)cyclopropane-1,1-dicarboxamide]	≤ 10	≤ 10
Cn1ccc(-c2ccc3c(Oc4ccc(NC(=O)C5(C(=O)Nc6ccc(F)cc6)CC5)cc4)ccnc3c2)n1 [Compound 17, 1-N′-(4-Fluorophenyl)-1-N-[4-[7-(1-methylpyrazol-3-yl)quinolin-4-yl]oxyphenyl]cyclopropane-1,1-dicarboxamide]	10 to 100	≤ 10
O=C(Nc1ccc(F)cc1)C1(C(=O)Nc2ccc(Oc3ccnc4cc(-c5cnn(CCN6CCOCC6)c5)ccc34)cc2)CC1 [Compound 19, 1-N′-(4-Fluorophenyl)-1-N-[4-[7-[1-(2-morpholin-4-ylethyl)pyrazol-4-yl]quinolin-4-yl]oxyphenyl]cyclopropane-1,1-dicarboxamide]	≤ 10	10 to 100
O=C(Nc1ccc(F)cc1)C1(C(=O)Nc2ccc(Oc3ccnc4cc(-c5cnn(C6CC6)c5)ccc34)cc2)CC1 [Compound 22, 1-N-[4-[7-(1-Cyclopropylpyrazol-4-yl)quinolin-4-yl]oxyphenyl]-1-N′-(4-fluorophenyl)cyclopropane-1,1-dicarboxamide]	10 to 100	10 to 100
O=C(Nc1ccc(F)cc1)C1(C(=O)Nc2ccc(Oc3ccnc4cc(-c5cnn(C6COC6)c5)ccc34)cc2)CC1 [Compound 24, 1-N′-(4-Fluorophenyl)-1-N-[4-[7-[1-(oxetan-3-yl)pyrazol-4-yl]quinolin-4-yl]oxyphenyl]cyclopropane-1,1-dicarboxamide]	≤ 10	≤ 10
CC(C)Oc1ccc(-c2ccc3c(Oc4ccc(NC(=O)C5(C(=O)Nc6ccc(F)cc6)CC5)cc4)ccnc3c2)cn1 [Compound 50, 1-N′-(4-Fluorophenyl)-1-N-[4-[7-(6-propan-2-yloxypyridin-3-yl)quinolin-4-yl]oxyphenyl]cyclopropane-1,1-dicarboxamide]	100 to 300	–
Cc1cc2c(Oc3ccc(NC(=O)C4(C(=O)Nc5ccc(F)cc5)CC4)cc3)ccnc2cc1-c1ncc[nH]1 [Compound 120, 1-N′-(4-Fluorophenyl)-1-N-[4-[7-(1H-imidazol-2-yl)-6-methylquinolin-4-yl]oxyphenyl]cyclopropane-1,1-dicarboxamide]	10 to 100	–

Second part, the compound after the results:

IC50 [1] [nM]	IC50 [2] [nM]	Structure (SMILES)
≤ 10	10 to 100	COCCn1cc(-c2ccc3c(Oc4ccc(NC(=O)C5(C(=O)Nc6ccc(F)cc6)CC5)cc4)ccnc3c2)cn1 [Compound 10, 1-N′-(4-Fluorophenyl)-1-N-[4-[7-[1-(2-methoxyethyl)pyrazol-4-yl]quinolin-4-yl]oxyphenyl]cyclopropane-1,1-dicarboxamide]
≤ 10	≤ 10	Cn1cc(-c2ccc3c(Oc4ccc(NC(=O)C5(C(=O)Nc6ccc(F)cc6)CC5)cc4)ccnc3c2)cn1 [Compound 11, 1-N′-(4-Fluorophenyl)-1-N-[4-[7-(1-methylpyrazol-4-yl)quinolin-4-yl]oxyphenyl]cyclopropane-1,1-dicarboxamide]
≤ 10	10 to 100	O=C(Nc1ccc(F)cc1)C1(C(=O)Nc2ccc(Oc3ccnc4cc(-c5cnn(CCF)c5)ccc34)cc2)CC1 [Compound 14, 1-N-[4-[7-[1-(2-Fluoroethyl)pyrazol-4-yl]quinolin-4-yl]oxyphenyl]-1-N′-(4-fluorophenyl)cyclopropane-1,1-dicarboxamide]
≤ 10	10 to 100	O=C(Nc1ccc(F)cc1)C1(C(=O)Nc2ccc(Oc3ccnc4cc(-c5cnn(CC(F)F)c5)ccc34)cc2)CC1 [Compound 15, 1-N-[4-[7-[1-(2,2-Difluoroethyl)pyrazol-4-yl]quinolin-4-yl]oxyphenyl]-1-N′-(4-fluorophenyl)cyclopropane-1,1-dicarboxamide]
10 to 100	≤ 10	O=C(Nc1ccc(F)cc1)C1(C(=O)Nc2ccc(Oc3ccnc4cc(-c5cnn(CC(F)(F)F)c5)ccc34)cc2)CC1 [Compound 16, 1-N′-(4-Fluorophenyl)-1-N-[4-[7-[1-(2,2,2-trifluoroethyl)pyrazol-4-yl]quinolin-4-yl]oxyphenyl]cyclopropane-1,1-dicarboxamide]
≤ 10	≤ 10	O=C(Nc1ccc(F)cc1)C1(C(=O)Nc2ccc(Oc3ccnc4cc(-c5cnn(CCO)c5)ccc34)cc2)CC1 [Compound 18, 1-N′-(4-Fluorophenyl)-1-N-[4-[7-[1-(2-hydroxyethyl)pyrazol-4-yl]quinolin-4-yl]oxyphenyl]cyclopropane-1,1-dicarboxamide]
≤ 10	≤ 10	CCn1cc(-c2ccc3c(Oc4ccc(NC(=O)C5(C(=O)Nc6ccc(F)cc6)CC5)cc4)ccnc3c2)cn1 [Compound 20, 1-N-[4-[7-(1-Ethylpyrazol-4-yl)quinolin-4-yl]oxyphenyl]-1-N′-(4-fluorophenyl)cyclopropane-1,1-dicarboxamide]
≤ 10	≤ 10	CC(C)n1cc(-c2ccc3c(Oc4ccc(NC(=O)C5(C(=O)Nc6ccc(F)cc6)CC5)cc4)ccnc3c2)cn1 [Compound 21, 1-N′-(4-Fluorophenyl)-1-N-[4-[7-(1-propan-2-ylpyrazol-4-yl)quinolin-4-yl]oxyphenyl]cyclopropane-1,1-dicarboxamide]
10 to 100	10 to 100	CC(C)(C)n1cc(-c2ccc3c(Oc4ccc(NC(=O)C5(C(=O)Nc6ccc(F)cc6)CC5)cc4)ccnc3c2)cn1 [Compound 23, 1-N-[4-[7-(1-tert-Butylpyrazol-4-yl)quinolin-4-yl]oxyphenyl]-1-N′-(4-fluorophenyl)cyclopropane-1,1-dicarboxamide]

Reference: patent US12503438B2, “Compounds for the treatment of kinase-dependent disorders” (Exelixis, Inc., priority 2019, dated 2025)
